Laboratory results published in patent publication US10183936B2, “Hepatitis B core protein allosteric modulators” (priority 2014, dated 2019).

What was measured:
[1] = system: HBV viral production in AD38 cells; test: Viral load production in AD38 cells by quantitative PCR of the HBV core sequence in supernatant; format: cell-based; settings: Hepatitis B virus, 144 h; 10 μM compound, 6 days at 37° C., viral load in supernatant compared against DMSO control wells; read-out: AD38 Viral Load (CpAM/DMSO %) at 10 μM
How it was run: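 AD38 cells seeded at 50,000/well, treated 6 days at 37° C with compound added as 10× solution in 10% DMSO. HBV core sequence in clarified supernatant quantified by TaqMan qPCR against known standards; viral load compared with DMSO control wells.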

[2] = system: AD38 cells; test: Viability of AD38 cells (Promega CellTiter-Glo) at the end of compound treatment; format: cell-based; settings: 10 μM compound, 6 days, luminescence normalized against DMSO control wells (controls being 100%)
How it was run: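 AD38 cells seeded at 50,000/well received compound from a 10× solution in 10% DMSO and were incubated 6 days at 37° C. Viability was then read by CellTiter-Glo luminescence in tetracycline-free medium with 2% FBS and 1% DMSO, normalized to DMSO control wells (100%) and reported as percent viability.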

Structure (SMILES) | activity at 10 µM [1] | AD38 Viability Normalized Result (CPAM/DMSO %) at 10 μM [2]
CN1c2ccc(C(=O)NCCc3cncs3)cc2NC(=O)c2ccccc21 [Compound 1532] | 17% | 112%
O=C(NCCc1cncnc1)c1ccc2c(c1)NC(=O)c1ccccc1S2(=O)=O [Compound 1457] | 28% | 92%
O=C(NCCc1cncnc1)c1cc2c(cc1F)Sc1ccccc1C(=O)N2 [Compound 1411] | 66% | 91%
CC(C)(C)c1ccc([C@@H](CO)NC(=O)c2ccc3c(c2)NC(=O)c2cc(F)ccc2S3)cc1 [Compound 1313] | 17% | 108%
NC(=O)c1ccc2c(c1)Sc1ccc(C(=O)NCCC3CCCCC3)cc1NC2=O [Compound 1276] | 24% | 89%
Cc1cccc(CCNC(=O)c2ccc3c(c2)NC(=O)c2ccccc2S3)c1 [Compound 1183] | 2% | 36%
O=C(NCCc1ccc(Br)cc1)c1ccc2c(c1)NC(=O)c1ccccc1S2 [Compound 1122] | 21% | 86%
O=C1Nc2cc(S(=O)(=O)NCc3cncs3)ccc2Sc2ccccc21 [Compound 1556] | 67% | 86%
O=C(Nc1cncc(F)c1)c1ccc2c(c1)NC(=O)c1cc(F)ccc1S2 [Compound 1337] | 77% | 91%
O=C(NCCOc1ccccc1)c1ccc2c(c1)NC(=O)c1ccccc1S2(=O)=O [Compound 1625] | 2% | 111%
O=C(NCCc1cnco1)c1ccc2c(c1)NC(=O)c1c(F)cccc1S2 [Compound 1580] | 59% | 89%
O=C1Nc2cc(S(=O)(=O)N3CCCCC3)ccc2Sc2ccccc21 [Compound 1399] | 105% | 92%
O=C(NCCc1cncs1)c1ccc2c(c1)NC(=O)c1ccccc1S2 [Compound 1247] | 8% | 103%
O=C(NCc1ccc(O)cc1)c1ccc2c(c1)NC(=O)c1ccccc1S2 [Compound 1196] | 2% | 95%
O=C(NCCc1cncs1)c1ccc2c(c1)NC(=O)c1c(F)cccc1S2 [Compound 1598] | 61% | 93%
Cc1ncc(CNC(=O)c2ccc3c(c2)NC(=O)c2ccccc2S3)s1 [Compound 1588] | 0% | 98%
O=C(Nc1cncc(Cl)c1)c1ccc2c(c1)NC(=O)c1cc(F)ccc1S2 [Compound 1345] | 115% | 93%
O=C(NCCC1CCCCC1)c1ccc2c(c1)NC(=O)c1ccccc1C2 [Compound 1198] | 3% | 60%
O=C(Nc1ccccc1F)c1ccc2c(c1)NC(=O)c1cc(F)ccc1S2 [Compound 1322] | 28% | 94%
O=C(NCc1ccccc1F)c1ccc2c(c1)NC(=O)c1ccccc1S2 [Compound 1167] | 57% | 124%
CC(=O)Nc1ccccc1NC(=O)c1ccc2c(c1)NC(=O)c1ccccc1S2 [Compound 1242] | 91% | 78%
O=C(Nc1cccc(-c2ccccc2)c1)c1ccc2c(c1)NC(=O)c1ccc(F)cc1S2 [Compound 1358] | 15% | 72%
O=C(NCCc1cc[nH]n1)c1ccc2c(c1)NC(=O)c1ccccc1S2 [Compound 1270] | 1% | 94%
CCOc1ccc(CCNC(=O)c2ccc3c(c2)NC(=O)c2ccccc2S3)cc1 [Compound 1214] | 2% | 94%
O=C(NCCc1cnco1)c1ccc2c(c1)NC(=O)c1ccc(F)cc1S2 [Compound 1402] | 12% | 81%
O=C1Nc2c(cc(F)c(C(=O)NCCc3cccnc3)c2F)Sc2ccccc21 [Compound 1531] | 53% | 96%
O=C(NCCc1cccc(OC(F)(F)F)c1)c1ccc2c(c1)NC(=O)c1ccccc1S2 [Compound 1201] | 1% | 50%
